From US20240293379A1, “THERAPEUTIC AGENT FOR CANCER OF PATIENT WITH DECREASE IN RB1 FUNCTION USING MYT1 INHIBITOR AND CHEMOTHERAPEUTIC AGENT IN COMBINATION, AND TREATMENT METHOD THEREOF” (Chugai Seiyaku Kabushiki Kaisha, priority 2022, published 2024)
Like-named read-outs stand apart in the source and are kept apart here.

Test system: HOP-62
Assay: Pemetrexed cytotoxicity test upon suppression of expression of MYT1
Format: cell-based
Conditions: Homo sapiens, HOP-62 (RB1 wild-type), 7 days
Protocol: Thereafter, the plates were shaken to transfect each siRNA at a final concentration of 10 nM.
The −Log 2 value of fold change of IC50 and the maximum value of Bliss score, which are indexes of the combination effect, were calculated by comparing with the actually obtained cell survival curve, and described in Table 6 (see Non Patent Literature 9).

Structure (SMILES): Nc1nc2[nH]cc(CCc3ccc(C(=O)N[C@@H](CCC(=O)O)C(=O)O)cc3)c2c(=O)[nH]1 [pemetrexed]
- IC50 (read-out: IC50 of pemetrexed, MYT1 #16, MYT1 siRNA #16 10 nM): 98.1 nM
- IC50 (read-out: IC50 of pemetrexed, MYT1 #18, MYT1 siRNA #18 10 nM): 91.9 nM
- IC50 (read-out: IC50 of pemetrexed, NT, negative control siRNA 10 nM): 175 nM
